Test results reported in patent US20190337971A1, “PANTETHEINE DERIVATIVES FOR THE TREATMENT OF NEUROLOGIC DISORDERS” (Retrophin, Inc., priority 2016, published 2019).

System: PANK2−/− IMR32 cells
Assay: Coenzyme A assay in PANK2 silenced cells (LC-MS quantification of free CoA)
Assay type: cell-based, human
Details: fold increase in CoA levels relative to controls, treated twice, 24 h + 24 h; for fold induction at 1 µM: compound concentration 1 uM
Description: A human neuroblastoma IMR32 cell line (ATCC) with stably PANK2 silencing was obtained by lentiviral-delivered small hairpin RNA and cultured in MEM (Invitrogen) supplemented with 10% fetal bovine serum, 2 mM glutamine, 1% penicillin-streptomycin, 1 mM sodium pyruvate, 1 mM non-essential amino acids, and 1.5 g/l sodium bicarbonate.
A non-silencing shRNA construct (scrambled shRNA) and an empty vector expressing GFP alone were used as negative controls. The GFP tag subcloned into the lentiviral vectors was used to monitor the transfection efficiency.
Three days after transduction medium was removed and replaced with fresh medium containing […] puromycin. […] The level of PANK2 expression in selected clones was assessed by Western Blot analysis.
To quantify CoA, PANK2−/− IMR32 cells were plated on 12-well culture plates (Corning) at a density of 0.2×10^6 cells per well. […] Controls with medium containing 0.1% DMSO without test compounds were also included in each plate. […] Before LC-MS analysis of CoA levels, cells were harvested, counted, and collected in a 15 ml falcon tube and centrifuged at 200×g for 5 min at 4° C. Supernatant was removed and cell pellet was washed in 10 ml of ice-cold PBS. To further confirm that the numbers of cells in each sample were equivalent, an equal fraction of pellet was collected from each sample and subjected to protein determination analysis. After centrifugation and supernatant removal, the cell pellet was rapidly frozen in Liquid Nitrogen and stored at −80° C. until analysis.
Intracellular CoA levels were calculated considering an intracellular volume of 1 million cells=2 μl.
The 1*10^6 cellular pellet was extracted with 120 μl of aqueous 20% TFA.
100 μL samples of supernatant were dried under N2 at 20° C. in the dark.
Samples were re-dissolved in 100 μl of 10 mM NH4^+ AcO^− buffer pH 5.1+IS (Dextrorphan 50 ng/ml), stirred for 2 min, sonicated in ultrasonic bath for 1 min, then stirred again for 1 min, and injected into LC-MS.
LC-MS/MS was performed using an Agilent HPLC (1100 Series, USA). The LC system was interfaced with an API-4000 Q-Trap triple quadrupole mass spectrometer (AB Sciex, Toronto, Canada) equipped with a TurboIonSpray ionization source operating in positive ion mode. Analyst™ software version 1.6 (AB Sciex, Toronto, Canada) was used for data acquisition and processing. CoA was separated using a Luna C18 column (2.0×50 mm; 5 μm particle size), column at 25° C. and flow rate of 0.2 ml/min. Injection volume was 15 μl. The mobile phases consisted of water containing 10 mM ammonium acetate pH 7 (mobile phase A) and MeCN-2-propanol 9:1 (mobile phase B).
Results are expressed as fold increase in CoA levels relative to controls (using LC-MS quantification of free CoA).

SMILES | PANK2−/− CoA Fold increase (compound concentration 10 uM) [fold] | fold induction at 1 µM (Homo sapiens, IMR-32) | other results
CC(=O)SCCNC(=O)CCNC(=O)[C@@H]1O[P@@](=O)(Oc2ccccc2)OCC1(C)C [R1041, S-(2-(3-((2S,4R)-5,5-dimethyl-2-oxido-2-phenoxy-1,3,2-dioxaphosphinane-4-carboxamido)propanamido)ethyl) ethanethioate] | 1.8 |  | 
CC(=O)SCCNC(=O)CCNC(=O)[C@@H]1O[P@](=O)(Oc2ccccc2)OCC1(C)C [R1042, S-(2-(3-((2R,4R)-5,5-dimethyl-2-oxido-2-phenoxy-1,3,2-dioxaphosphinane-4-carboxamido)propanamido)ethyl) ethanethioate] | 1.0 |  | 
CC(=O)SCCNC(=O)CCNC(=O)[C@@H]1O[P@@](=O)(OCOC(=O)c2cc(C(C)(C)C)n[nH]2)OCC1(C)C [R1016, (((2S,4R)-4-((3-((2-(acetylthio)ethyl)amino)-3-oxopropyl)carbamoyl)-5,5-dimethyl-2-oxido-1,3,2-dioxaphosphinan-2-yl)oxy)methyl 3-(tert-butyl)-1H-pyrazole-5-carboxylate] |  | 323 | 
CC(=O)SCCNC(=O)CCNC(=O)[C@@H]1OP(=O)(OCOC(=O)NC(C)(C)COC(=O)C(C)(C)C)OCC1(C)C (stereo partly drawn) [R1028, 2-((((((4R)-4-((3-((2-(acetylthio)ethyl)amino)-3-oxopropyl)carbamoyl)-5,5-dimethyl-2-oxido-1,3,2-dioxaphosphinan-2-yl)oxy)methoxy)carbonyl)amino)-2-methylpropyl pivalate] |  |  | fold induction at 50 µM (Homo sapiens, IMR-32, compound concentration 50 uM): 5.7
CC(=O)SCCNC(=O)CCNC(=O)[C@@H]1OP(=O)(OCOC(=O)C(C)C)OCC1(C)C (stereo partly drawn) [R1024, (((4R)-4-((3-((2-(acetylthio)ethyl)amino)-3-oxopropyl)carbamoyl)-5,5-dimethyl-2-oxido-1,3,2-dioxaphosphinan-2-yl)oxy)methyl isobutyrate] |  | 1.4 | 
CC(=O)OCCNC(=O)OCOP1(=O)OCC(C)(C)[C@H](C(=O)NCCC(=O)NCCSC(C)=O)O1 (stereo partly drawn) [R1025, 2-((((((4R)-4-((3-((2-(acetylthio)ethyl)amino)-3-oxopropyl)carbamoyl)-5,5-dimethyl-2-oxido-1,3,2-dioxaphosphinan-2-yl)oxy)methoxy)carbonyl)amino)ethyl acetate] |  |  | fold induction at 10 µM (Homo sapiens, IMR-32, compound concentration 10 uM): 1.4
